According to patent US20090325805A1, “Cationic surfactant based adjuvant systems for some herbicides that increase pH, herbicide solubility and performance” (priority 2004, published 2009):

How the values were obtained:
Assay type in all cases: in vivo
[1] = system: Downy Brome (Bromus tectorum); assay: Herbicide efficacy (percent control) on downy brome with differing spray adjuvants (Table 2); design: concentration or dose not given beside the values; details: for Downy Brome % Control 21 DAT: 21 days after treatment; for Downy Brome % Control 68 DAT: 68 days after treatment
Description: (§1) This effect has been seen with both wild oat (Avena fatua) Table 1 and downy brome (Bromus tectorum) Table 2. The increase in activity has been seen with different formulation of tallow amine cat-ionic surfactant and a pH increasing additive (Table 3). [table]

[2] = system: Downy Brome (Bromus tectorum); assay: Sulfosulfuron efficacy (percent control) on downy brome with differing tallow amine adjuvant formulations (Table 3); design: concentration or dose not given beside the values; details: for Downy Brome % Control 17 DAT: 17 days after treatment; for Downy Brome % Control 87 DAT: 87 days after treatment
Description: as §1

Wild Oat (Avena fatua) = assay: Post-emergence herbicide efficacy (percent control) on wild oats with differing spray adjuvants; details: Sulfosulfuron 0.66 oz/Acre; for Wild Oat % Control 14 DAT: 14 days after treatment; for Wild Oat % Control 28 DAT: 28 days after treatment
Description: This invention pertains to the unexpected increase in activity seen when sulfosulfuron was applied with a cat-ionic surfactant plus a pH adjustor that increased the pH to a pH of 9-10.5 (Table 1). As opposed to the increase in activity that was predicted to happen when applied with an oil based or non-ionic surfactant with a pH adjustor as taught by Nalewaja et. al. This effect has been seen with both wild oat (Avena fatua) Table 1 and downy brome (Bromus tectorum) Table 2. The increase in activity has been seen with different formulation of tallow amine cat-ionic surfactant and a pH increasing additive (Table 3). [table]

[3] = adjuvant AQ117 (tallow amine plus aqua ammonia)
[4] = adjuvant R-11 (non-ionic surfactant)
[5] = adjuvant AQ103 (tallow amine plus aqua ammonia)
[6] = adjuvant AQ104 (tallow amine plus aqua ammonia)
[7] = adjuvant AQ118 (tallow amine plus aqua ammonia)
[8] = adjuvant Quad 7 (crop oil plus nitrogen fertilizer)

Structure (SMILES) | Downy Brome % Control 21 DAT [1, 3] [%] | Downy Brome % Control 68 DAT [1, 3] [%] | Downy Brome % Control 21 DAT [1, 4] [%] | Downy Brome % Control 68 DAT [1, 4] [%] | Downy Brome % Control 17 DAT [2, 5] [%] | Downy Brome % Control 87 DAT [2, 5] [%] | Downy Brome % Control 17 DAT [2, 6] [%] | Downy Brome % Control 87 DAT [2, 6] [%] | Downy Brome % Control 17 DAT [2, 4] [%] | Downy Brome % Control 87 DAT [2, 4] [%] | Wild Oat % Control 14 DAT (Wild Oat (Avena fatua); [7]) [%] | Wild Oat % Control 28 DAT (Wild Oat (Avena fatua); [7]) [%] | Wild Oat % Control 14 DAT (Wild Oat (Avena fatua); [8]) [%] | Wild Oat % Control 28 DAT (Wild Oat (Avena fatua); [8]) [%]
CCCOc1nn(C(=O)[N-]S(=O)(=O)c2ccccc2C(=O)OC)c(=O)n1C.[Na+] [Propoxycarbazone, Propoxycarbazone-sodium] | 73 | 90 | 52 | 67 | – | – | – | – | – | – | – | – | – | –
CCS(=O)(=O)c1nc2ccccn2c1S(=O)(=O)NC(=O)Nc1nc(OC)cc(OC)n1 [Sulfosulfuron] | 78 | 97 | 52 | 62 | 30 | 92 | 30 | 90 | 5 | 77 | 75 | 98 | 48 | 62
